Where two headings read alike, the source gives them in different places.

Common to all, as to test: biochemical
What all share (format): biochemical

Assay [1] concerns the target 363 human kinases (including Aurora A/B/C) (Homo sapiens, UniProt P22455). The conditions noted are these: FGFR4, [ATP] 100 µM; for remaining activity at 0.5 µM / remaining activity at 0.1 µM: read-out: % Enzyme Activity (relative to DMSO controls); for remaining activity at 0.1 µM: 100 nM.
Excerpt: (§1) However, the Aurora A/B selectivity ratios derived from our in vitro and in vivo data can be compared to prioritize inhibitors.
The target in assay [2] is T1, 363 human kinases (including Aurora A/B/C) (Homo sapiens, UniProt Q7L7X3).
T1 sequence (Q7L7X3 1-1001): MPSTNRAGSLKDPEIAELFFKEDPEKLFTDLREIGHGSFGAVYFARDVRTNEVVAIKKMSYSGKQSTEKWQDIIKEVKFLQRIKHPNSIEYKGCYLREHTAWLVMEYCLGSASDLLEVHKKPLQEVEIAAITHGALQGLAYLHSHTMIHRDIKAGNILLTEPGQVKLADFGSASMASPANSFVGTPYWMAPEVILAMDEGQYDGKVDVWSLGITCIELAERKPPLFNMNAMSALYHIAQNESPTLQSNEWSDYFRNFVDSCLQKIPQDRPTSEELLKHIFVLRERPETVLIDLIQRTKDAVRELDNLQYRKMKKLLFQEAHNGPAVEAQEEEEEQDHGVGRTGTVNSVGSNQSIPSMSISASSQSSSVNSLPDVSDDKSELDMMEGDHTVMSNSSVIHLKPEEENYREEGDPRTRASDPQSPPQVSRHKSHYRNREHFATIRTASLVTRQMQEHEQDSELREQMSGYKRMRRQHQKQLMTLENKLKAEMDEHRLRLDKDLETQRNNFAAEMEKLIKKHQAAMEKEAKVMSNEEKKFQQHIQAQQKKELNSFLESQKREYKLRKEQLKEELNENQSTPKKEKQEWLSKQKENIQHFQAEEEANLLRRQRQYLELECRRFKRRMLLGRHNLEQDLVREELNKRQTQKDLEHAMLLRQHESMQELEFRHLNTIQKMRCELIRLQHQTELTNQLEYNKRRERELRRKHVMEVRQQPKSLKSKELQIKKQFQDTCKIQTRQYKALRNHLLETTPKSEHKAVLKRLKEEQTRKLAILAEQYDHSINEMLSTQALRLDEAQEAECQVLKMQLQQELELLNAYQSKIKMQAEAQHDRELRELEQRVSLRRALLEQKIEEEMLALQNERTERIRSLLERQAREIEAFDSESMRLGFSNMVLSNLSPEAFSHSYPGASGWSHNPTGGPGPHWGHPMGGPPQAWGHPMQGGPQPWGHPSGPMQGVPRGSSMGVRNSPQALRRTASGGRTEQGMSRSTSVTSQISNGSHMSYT
To be noted: TAOK1; for remaining activity at 0.5 µM / remaining activity at 0.1 µM: read-out: % Enzyme Activity (relative to DMSO controls); for remaining activity at 0.1 µM: 100 nM.
Excerpt: as §1

In assay [3] the target is 363 human kinases (including Aurora A/B/C) (Homo sapiens, UniProt Q00535). To be noted: for % Enzyme Activity (relative to DMSO controls) / remaining activity at 0.5 µM: 500 nM; for remaining activity at 0.5 µM / remaining activity at 0.1 µM: read-out: % Enzyme Activity (relative to DMSO controls); for remaining activity at 0.1 µM: 100 nM.
Excerpt: as §1
Assay [4] has as its target T2, 363 human kinases (including Aurora A/B/C) (Homo sapiens, UniProt O95835).
T2 sequence (O95835 1-1130): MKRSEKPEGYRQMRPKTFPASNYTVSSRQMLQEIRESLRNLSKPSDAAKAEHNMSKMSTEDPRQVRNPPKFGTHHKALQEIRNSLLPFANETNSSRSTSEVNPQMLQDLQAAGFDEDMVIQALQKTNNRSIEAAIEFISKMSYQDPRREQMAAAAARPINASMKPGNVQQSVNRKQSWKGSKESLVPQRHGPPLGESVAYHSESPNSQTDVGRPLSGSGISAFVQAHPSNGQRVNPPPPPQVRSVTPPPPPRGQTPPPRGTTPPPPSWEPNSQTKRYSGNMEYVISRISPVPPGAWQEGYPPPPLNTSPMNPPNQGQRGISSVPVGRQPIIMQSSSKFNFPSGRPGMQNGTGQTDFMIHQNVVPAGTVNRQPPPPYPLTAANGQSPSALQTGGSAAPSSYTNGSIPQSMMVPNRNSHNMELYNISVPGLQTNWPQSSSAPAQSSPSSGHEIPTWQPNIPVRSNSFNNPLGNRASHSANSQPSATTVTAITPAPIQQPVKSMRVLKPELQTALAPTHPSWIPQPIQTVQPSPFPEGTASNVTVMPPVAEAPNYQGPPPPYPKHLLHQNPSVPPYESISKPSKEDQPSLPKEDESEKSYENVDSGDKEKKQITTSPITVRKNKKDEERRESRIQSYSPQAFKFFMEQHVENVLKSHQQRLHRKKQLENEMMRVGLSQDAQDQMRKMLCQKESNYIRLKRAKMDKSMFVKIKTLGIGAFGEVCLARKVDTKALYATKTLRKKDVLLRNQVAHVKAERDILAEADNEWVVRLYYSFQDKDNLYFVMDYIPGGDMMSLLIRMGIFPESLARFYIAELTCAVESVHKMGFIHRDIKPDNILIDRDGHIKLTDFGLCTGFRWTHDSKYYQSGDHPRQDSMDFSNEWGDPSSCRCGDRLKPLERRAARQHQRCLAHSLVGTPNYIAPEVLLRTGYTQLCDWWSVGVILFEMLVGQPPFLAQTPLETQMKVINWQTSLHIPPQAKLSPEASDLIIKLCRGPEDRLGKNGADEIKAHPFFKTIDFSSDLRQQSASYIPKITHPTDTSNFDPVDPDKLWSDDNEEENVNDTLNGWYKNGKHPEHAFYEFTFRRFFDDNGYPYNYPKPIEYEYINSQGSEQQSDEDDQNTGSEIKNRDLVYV
To be noted: LATS1; for remaining activity at 0.5 µM / remaining activity at 0.1 µM: read-out: % Enzyme Activity (relative to DMSO controls); for remaining activity at 0.1 µM: 100 nM.
Excerpt: as §1

Assay [5] addresses 363 human kinases (including Aurora A/B/C) (Homo sapiens, UniProt Q6P5Z2). To be noted: PKN3/PRK3; for remaining activity at 0.5 µM / remaining activity at 0.1 µM: read-out: % Enzyme Activity (relative to DMSO controls); for remaining activity at 0.1 µM: 100 nM.
Excerpt: as §1

363 human kinases (including Aurora A/B/C) (Homo sapiens, UniProt P22455), sequence (P22455 22-802): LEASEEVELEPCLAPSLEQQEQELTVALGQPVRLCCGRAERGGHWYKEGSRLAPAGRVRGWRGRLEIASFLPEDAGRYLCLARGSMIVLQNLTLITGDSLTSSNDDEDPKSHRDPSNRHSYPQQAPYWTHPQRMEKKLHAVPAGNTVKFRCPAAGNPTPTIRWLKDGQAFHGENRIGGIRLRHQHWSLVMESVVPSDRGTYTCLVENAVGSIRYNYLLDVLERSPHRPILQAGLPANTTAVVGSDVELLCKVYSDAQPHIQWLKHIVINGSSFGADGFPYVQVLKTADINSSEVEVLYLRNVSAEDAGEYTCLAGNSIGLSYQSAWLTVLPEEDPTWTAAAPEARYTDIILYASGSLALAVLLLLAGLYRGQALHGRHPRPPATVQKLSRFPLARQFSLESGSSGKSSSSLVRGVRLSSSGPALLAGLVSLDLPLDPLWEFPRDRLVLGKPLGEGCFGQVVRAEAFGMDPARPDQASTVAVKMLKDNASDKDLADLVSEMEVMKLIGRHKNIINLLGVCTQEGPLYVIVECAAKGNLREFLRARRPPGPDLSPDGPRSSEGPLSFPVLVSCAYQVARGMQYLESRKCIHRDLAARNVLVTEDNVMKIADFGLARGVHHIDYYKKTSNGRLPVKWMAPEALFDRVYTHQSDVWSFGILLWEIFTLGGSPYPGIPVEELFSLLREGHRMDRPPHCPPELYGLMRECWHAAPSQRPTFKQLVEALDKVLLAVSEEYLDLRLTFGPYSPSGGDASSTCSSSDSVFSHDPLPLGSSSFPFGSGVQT
363 human kinases (including Aurora A/B/C) (Homo sapiens, UniProt Q00535), sequence (Q00535 whole entry): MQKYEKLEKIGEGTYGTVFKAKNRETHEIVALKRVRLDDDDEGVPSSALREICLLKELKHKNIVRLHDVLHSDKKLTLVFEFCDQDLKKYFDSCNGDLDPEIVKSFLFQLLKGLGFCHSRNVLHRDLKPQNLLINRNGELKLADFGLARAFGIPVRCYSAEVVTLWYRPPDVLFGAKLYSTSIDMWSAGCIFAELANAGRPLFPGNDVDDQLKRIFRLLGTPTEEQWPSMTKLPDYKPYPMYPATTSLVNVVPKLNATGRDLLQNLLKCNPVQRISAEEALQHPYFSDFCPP
363 human kinases (including Aurora A/B/C) (Homo sapiens, UniProt Q6P5Z2), sequence (Q6P5Z2 whole entry): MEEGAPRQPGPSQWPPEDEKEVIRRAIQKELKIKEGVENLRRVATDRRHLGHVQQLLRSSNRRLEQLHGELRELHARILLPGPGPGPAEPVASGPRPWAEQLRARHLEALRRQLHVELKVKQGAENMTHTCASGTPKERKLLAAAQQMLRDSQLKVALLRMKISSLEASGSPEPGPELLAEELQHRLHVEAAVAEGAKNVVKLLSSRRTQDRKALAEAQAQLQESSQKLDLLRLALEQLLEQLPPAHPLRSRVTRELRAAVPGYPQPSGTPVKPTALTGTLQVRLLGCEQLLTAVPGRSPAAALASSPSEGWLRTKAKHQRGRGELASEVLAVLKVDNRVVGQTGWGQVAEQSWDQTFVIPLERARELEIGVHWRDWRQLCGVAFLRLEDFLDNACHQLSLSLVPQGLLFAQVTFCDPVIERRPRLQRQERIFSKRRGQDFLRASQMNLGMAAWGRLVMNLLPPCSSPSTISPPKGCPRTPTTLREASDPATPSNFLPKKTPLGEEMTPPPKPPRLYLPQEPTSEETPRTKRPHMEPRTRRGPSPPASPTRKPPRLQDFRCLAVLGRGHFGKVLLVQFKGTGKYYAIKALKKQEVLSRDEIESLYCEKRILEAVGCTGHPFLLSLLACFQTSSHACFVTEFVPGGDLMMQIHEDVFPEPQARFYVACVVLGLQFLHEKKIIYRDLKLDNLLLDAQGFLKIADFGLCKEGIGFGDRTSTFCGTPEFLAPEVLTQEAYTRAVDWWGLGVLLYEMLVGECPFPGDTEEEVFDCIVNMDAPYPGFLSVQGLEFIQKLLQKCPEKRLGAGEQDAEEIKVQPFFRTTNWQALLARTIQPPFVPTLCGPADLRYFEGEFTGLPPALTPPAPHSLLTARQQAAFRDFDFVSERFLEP

As to `O=C(c1cccc(Cl)c1F)N1CCN(Cc2cccc(Nc3nccs3)n2)CC1` [MK-8745], the “% Enzyme Activity (relative to DMSO controls)” value in assay [1] (500 nM) is given as 106.52%; in assay [2] (500 nM), 88.72%; in assay [3] (CDK5/p25, [ATP] 50 µM), 87.84%; in assay [3] (CDK5/p35, [ATP] 100 µM) it was 93.11%; in assay [4] (500 nM) it was 96.46%; in assay [5] (500 nM), 100.01%. Besides, the remaining activity at 0.5 µM was found to be 118% in assay [1] (500 nM); 89.7% in assay [2] (500 nM); 88.5% in assay [3] (CDK5/p25, [ATP] 50 µM); 94.6% in assay [3] (CDK5/p35, [ATP] 100 µM); 96.8% in assay [4] (500 nM); 100% in assay [5] (500 nM).
For `CCn1cc(-c2ccnc3[nH]c(-c4cccc(CN(C)C)c4)cc23)c(-c2ccc(NC(=O)N(C)C)cc2)n1` [GSK1070916], the remaining activity at 0.1 µM in assay [1] was 125%; in assay [2], 96%; in assay [3] (CDK5/p25, [ATP] 50 µM) it was 91.8%; in assay [3] (CDK5/p35, [ATP] 100 µM) it was 111%; in assay [4] it was 97.5%; in assay [5], 107%.
As for `O=C(O)[C@]1(Cc2cccc(Nc3nccs3)n2)CC[C@@H](Oc2cccc(Cl)c2F)CC1` [MK-5108], the remaining activity at 0.1 µM worked out at 91.7% in assay [1]; 89.5% in assay [2]; 95.8% in assay [3] (CDK5/p25, [ATP] 50 µM); 95.7% in assay [3] (CDK5/p35, [ATP] 100 µM); 98.5% in assay [4]; 90.8% in assay [5]. Further, the remaining activity at 0.5 µM in assay [1] (500 nM) worked out at 126%; in assay [2] (500 nM), 70.3%; in assay [3] (CDK5/p25, [ATP] 50 µM), 75.3%; in assay [3] (CDK5/p35, [ATP] 100 µM) it was 90%; in assay [4] (500 nM), 94.1%; in assay [5] (500 nM), 88.2%.
